Reference: article PMC5342262, “Synthesis, in vitro and in vivo evaluation of 3β-[^18F]fluorocholic acid for the detection of drug-induced cholestasis in mice” (PLoS ONE, 2017)
Values joined by “and” are separate entries in the source; they are usually repeats but may differ in a detail not shown here. Equal entries are not always repeated. “Also recorded” adds a separate entry of the source.

What was measured:
[1] = Stability of [^18F]FCA in its PBS formulation; format: physicochemical; settings: PBS pH 7.4 formulation; room temperature
[2] = tested on: primary mouse hepatocytes; experiment: Stability/metabolization of [^18F]FCA with primary mouse hepatocytes; settings: 37°C
[3] = as above; settings: mouse
[4] = Dynamic PET of [^18F]FCA in wild-type FVB mice; format: in vivo
Description: Food and water was provided ad libitum. Animals were fasted overnight before the PET-scan.
A CT-scan was acquired for anatomical correlation.
In vivo characteristics of [^18F]FCA were investigated by a two hour dynamic PET scan with 30 MBq [^18F]FCA, injected intravenously (n = 3). Four and six hours post-injection, a 30 minute static scan was performed.
P-values ≤ 0.05 were considered significant.

[5] = Stability of [^18F]FCA in mouse serum
[6] = LogD of [^18F]FCA in octanol/PBS pH 7.4; format: physicochemical; settings: octanol/PBS 50:50 v:v, n = 3
Description: 1 MBq of [^18F]FCA was used to spike an octanol/PBS 50:50 v:v pH 7.4 mixture in a test tube. After mixing and centrifugation (5 min; 1100 g), aliquots were taken from each layer and radioactivity was measured in a NaI (Tl) scintillation counter (Capintec; Ramsey, NJ, USA). The LogD value of [^18F]FCA was calculated as the logarithm of the ratio of counts in octanol and PBS.

[7] = tested on: hepatobiliary transport of [^18F]FCA; experiment: Dynamic PET of [^18F]FCA in control, rifampicin and bosentan treated FVB-mice; settings: female, FVB, mouse, in vivo
Description: Hepatobiliary transport of the tracer was evaluated in female wild-type FVB mice (5 weeks old, Charles River). The animals were housed in accordance with European Ethics Committee guidelines. The animal studies were approved by the Animal Experimental Ethical Committee of Ghent University (ECD 15/69). Food and water was provided ad libitum. Animals were fasted overnight before the PET-scan.
Mice were anesthetized with 1.5 v:v % isoflurane in 100% O2 for the duration of the experiment. An intravenous polyethylene line was placed in the lateral tail vein. The animals were placed in the small animal PET/CT-scanner (FLEX Triumph II small animal PET/CT-scanner; PET field of view: 7.5 cm axial; 1.3 mm spatial resolution; TriFoil Imaging) on a heated bed. A CT-scan was acquired for anatomical correlation.
The interaction of rifampicin (Sigma Aldrich) and bosentan (Activate Scientific) on in vivo [^18F]FCA transport was examined. FVB-mice were divided into 3 different groups (n = 3 per group): rifampicin, bosentan, and a control DMSO vehicle treated group). Both drugs were administered in doses of 100 mg/kg, intra-peritoneal in DMSO:PBS 70:30 v:v (rifampicin) or DMSO (bosentan) 1 hour before the start of the PET-scan. An additional dose (25 mg/kg for rifampicin in DMSO:PBS 40:60 v:v, 50 mg/kg for bosentan in DMSO) was co-injected intravenously with the tracer.
For each scan, 10 MBq of [^18F]FCA was administered intravenously and a 1 hour dynamic scan was started. Immediately after the dynamic scan, 18 MBq [^18F]FDG was injected intravenously. After 20 minutes, a 20 minutes static scan was taken.
PET-data were obtained in list-mode and were iteratively reconstructed (50 iterations) in frames of 15 seconds for the first 10 minutes, followed by 50 frames of 1 minute. ROI’s were drawn manually over liver, gallbladder and intestines using PMod software. A ROI was drawn in the left ventricle on the static [^18F]FDG scan to obtain an image-derived arterial blood input curve. The uptake of [^18F]FCA in arterial blood, liver, gallbladder and intestines was expressed as a % injected dose (% ID) and normalized for the weight of a 20 gram mouse. Time-activity curves (TAC’s) were generated using these values.
AUC, maximum % ID, and time to peak values were determined for the TAC’s with Graphpad Prism v3.00. Differences between 2 groups were determined with the non-parametric Mann-Whitney U test. P-values ≤ 0.05 were considered significant.

## C[C@H](CCC(=O)O)[C@H]1CC[C@H]2[C@@H]3[C@H](O)C[C@@H]4C[C@@H]([18F])CC[C@]4(C)[C@H]3C[C@H](O)[C@]12C [[^18F]FCA, 3β-[^18F]Fluorocholic Acid]
[1]
  time stable in PBS formulation: at least 6 hours
[2]
  time stable in presence of primary mouse hepatocytes: at least 1 hour
[2]; 5, 10, 30 and 60 minutes
  degradation or metabolization products with primary mouse hepatocytes: metabolically stable; also recorded: No degradation or metabolization products
[3]
  recovery at 5 min, 37 MBq/mL: 100%
  recovery at 10 min, 37 MBq/mL: 100%
  recovery at 30 min, 37 MBq/mL: 100%
  recovery at 60 min, 37 MBq/mL: 100%
[4]; IV, n = 3
  AUC gallbladder & intestines % injected dose: 4105 ± 36 % ID.min
  Time to peak liver: 4.5 min and 4.5 ± 0.5 min
[4]; IV, n = 3, normalized for a 20 g mouse
  Max % injected dose liver: 71.8 % ID and 71.8 ± 1.2 % ID
[4]; PET/CT images up to 6 hours post-injection
  uptake in urinary bladder or other organs: no uptake in other organs than liver, gallbladder and intestines
[4]; after 1 hour
  radioactivity in gallbladder and intestines: 93.3 ± 6.0 % ID and 93.3 % ID
[5]; 37°C
  time stable in presence of mouse serum: at least 1 hour
[5]; 37°C, 5, 10, 30 and 60 minutes
  degradation or metabolization products in mouse serum: No degradation or metabolization products
[5]; mouse
  recovery at 5 min, 37 MBq/mL: 100%
  recovery at 10 min, 37 MBq/mL: 100%
  recovery at 30 min, 37 MBq/mL: 100%
  recovery at 60 min, 37 MBq/mL: 100%
[6]
  logD: 1.19 ± 0.1
[7]
  AUC arterial blood % injected dose: 1.909 ± 0.572 % ID.min
  AUC gallbladder & intestines % injected dose: 3718 ± 182 % ID.min
  Time to peak liver: 5.5 ± 1.1 min
[7]; iv
  Max % injected dose liver: 71.2 ± 3.5 % ID
